Read-outs that look alike come from different tables or passages of the source.

A short description of data set [1]: Measurement of transferability into brain and clearance. The settings on record: rats, intravenous injection (tail vein); for Radioactive accumulation per unit weight of brain, after 2 min.: 2 min after injection; for Radioactive accumulation per unit weight of brain, after 5 min.: 5 min after injection; for Radioactive accumulation per unit weight of brain, after 30 min.: 30 min after injection; for Radioactive accumulation per unit weight of brain, after 60 min.: 60 min after injection. The protocol:
The rats were sacrificed by bleeding from abdominal artery, and brains were removed and subjected to measurement of mass of brains and further subjected to measurement of radioactivity (hereinafter referred to as A in this Example) with a single channel analyzer (detector type: SP-20 manufactured by OHYO KOKEN KOGYO Co., Ltd.) 2, 5, 30 and 60 minutes after the injection. Also, radioactivity (hereinafter referred to as B in this Example) of the remain of the whole body was measured in the same manner as above.
The same procedures as above were performed to calculate radioactive accumulation per unit weight of brain (% ID/g) at the respective time points (Comparative Example 2).
Three animals were used for Example 15, Example 16 and Reference Example 2 at the respective time points.

Data set [2] concerns the target T1, intracerebral amyloid (Homo sapiens, UniProt P05067).
T1 construct: Aβ1-42 (manufactured by Wako); purchased Wako
The data set can be described thus: Confirmation of imaging of amyloid in brain (autoradiogram of brain slice, amyloid injected into amygdaloid nucleus). The data set is classed as in vivo, male Wistar rat. The note with it: 60 minutes after intravenous injection. The method, then: (§1) (1) Aβ1-42 (manufactured by Wako) was dissolved in phosphate buffer (pH 7.4) and shaken at 37° C. for 72 hours, to obtain a 1 mg/mL suspension of aggregated Aβ (hereinafter referred to as amyloid suspension in this Example).
(§2) (2) 2.5 μL (corresponding to 25 μg) of the amyloid suspension was injected under thiopental anesthesia into an amygdaloid nucleus on one side of a male Wistar rat (7-week old). As a control, 2.5 μL of a phosphate buffered physiological saline solution (pH 7.4) was injected into an amygdaloid nucleus on the other side of the rat. The rats were examined 1 day after the injection of the amyloid suspension and the phosphate buffered physiological saline solution (pH 7.4).
(§3) This sample solution was injected under thiopental anesthesia into the rat through the tail vein (dosage: 0.5 mL, dosed radioactivity: 16 MBq equivalent).
(§4) (4) Brain was removed 60 minutes after the injection to prepare a brain slice of 10 μm in thickness with a microtome (type: CM3050S, manufactured by LEICA). The brain slice was exposed to an imaging plate for 20 hours, and then image analysis was carried out by use of a Bio-imaging Analyzer (type: BAS-2500; manufactured by FUJIFILM Corporation).
(§5) (5) After the completion of the image analysis using the Bio-imaging Analyzer, pathological staining with Thioflavin T was carried out to perform imaging by use of a fluorescence microscope (manufactured by NIKON Corporation; type: TE2000-U model; excitation wavelength: 400-440 nm; detection wavelength: 470 nm).

For data set [3], the system named is intracerebral amyloid. The data set is described as above. In kind it is in vivo, male Wistar rat. The settings on record: 60 minutes after intravenous injection, control side. The protocol:
as §1, §2, §3, §4, §5

Data set [4] is described as follows: Measurement of partition coefficient based on the octanol extraction method. The note with it: octanol / 10 mmol/L phosphate buffer (pH 7.4).
Method: To 2 mL of octanol, 10 μL each of the prepared sample solutions was respectively added, and 2 mL of a 10 mmol/L phosphate buffer (pH 7.4) was further added, followed by stirring for 30 seconds. After the mixture was centrifuged with a low-speed centrifuge (2000 rpm×60 min.), the octanol layer and the water layer were sampled each in an amount of 1 mL, and subjected to measurement of radioactivity count with an autowell gamma system (Type: ARC-301B, manufactured by Aloka). Using the obtained radioactivity count, logPoctanol was calculated in accordance with the equation (2).
The conditions of data set [5]: [125I]-labeled, normal mice; cited from earlier work.
Another data set concerns amyloid. The settings on record: [125I]-labeled compounds; cited from earlier work.
For data set [6] the following is noted: [11C]-labeled, rats; cited from earlier work.
Data set [7] addresses amyloid (aggregated Aβ1-42) (Homo sapiens, UniProt P05067). An excerpt:
Affinity of the present compounds with amyloid was examined by the following in vitro binding tests.

T1 sequence (P05067 672-713): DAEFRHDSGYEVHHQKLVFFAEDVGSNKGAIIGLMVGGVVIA
Sequence of amyloid (aggregated Aβ1-42) (P05067 672-713): as above

Consider `Fc1ccc(-c2cn3cc([123I])ccc3n2)cc1`, for which, in data set [1], the “Radioactive accumulation per unit weight of brain, after 2 min.” value worked out at 1.00 % ID/g; the “Radioactive accumulation per unit weight of brain, after 5 min.” value is reported as 0.72 % ID/g; the “Radioactive accumulation per unit weight of brain, after 30 min.” value was 0.12 % ID/g; the “Radioactive accumulation per unit weight of brain, after 60 min.” value is 0.05 % ID/g. Besides, the “Accumulation of radioactivity in the amygdaloid nucleus on the side injected with amyloid suspension” value (shortened to “Accumulation … with amyloid suspension”) on intracerebral amyloid [2] was “marked accumulation of radioactivity”. The “Accumulation of radioactivity in the amygdaloid nucleus on the side injected with physiological saline solution” value in the data set on intracerebral amyloid [3] is reported as “no significant accumulation of radioactivity”. In addition, in data set [4], the logPoctanol value amounted to 2.3.

For the compound `COc1ccc2nc(-c3ccc([123I])cc3)cn2c1`, in data set [1], the “Radioactive accumulation per unit weight of brain, after 2 min.” value was 1.26 % ID/g; the “Radioactive accumulation per unit weight of brain, after 5 min.” value was found to be 0.89 % ID/g; the “Radioactive accumulation per unit weight of brain, after 30 min.” value is reported as 0.19 % ID/g; the “Radioactive accumulation per unit weight of brain, after 60 min.” value worked out at 0.09 % ID/g. Also, on intracerebral amyloid [2], the “Accumulation … with amyloid suspension” value is recorded as “marked accumulation of radioactivity”. For the same compound, the “Accumulation of radioactivity in the amygdaloid nucleus on the side injected with physiological saline solution” value with intracerebral amyloid [3] is reported as “no significant accumulation of radioactivity”. In data set [4], this compound showed a logPoctanol value of 2.3.

Turning to `COc1ccc(-c2cn3cc([123I])ccc3n2)cc1`, in data set [1], the “Radioactive accumulation per unit weight of brain, after 2 min.” value was 1.04 % ID/g; the “Radioactive accumulation per unit weight of brain, after 5 min.” value was found to be 0.72 % ID/g; the “Radioactive accumulation per unit weight of brain, after 30 min.” value worked out at 0.12 % ID/g; the “Radioactive accumulation per unit weight of brain, after 60 min.” value came to 0.04 % ID/g. Also, the “Accumulation … with amyloid suspension” value at intracerebral amyloid [2] was “marked accumulation of radioactivity”. Further, in the data set with intracerebral amyloid [3], the “Accumulation of radioactivity in the amygdaloid nucleus on the side injected with physiological saline solution” value was “no significant accumulation of radioactivity”. In data set [4], this compound showed a logPoctanol value of 1.7.

As for `CN(C)c1ccc(-c2nc3ccc(I)cc3o2)cc1` [IBOX, 6-iodo-2-[4′-(N,N-dimethylamino)phenyl]benzoxazole], in data set [5], the “Clearance from normal tissues” value is reported as “insufficient in clearance from normal tissues” and the Transfer into brain result is “transferred into brain 2 minutes after administration”.

`CN(C)c1ccc(-c2cn3cc(I)ccc3n2)cc1` [IMPY, 6-iodo-2-[4′-(N,N-dimethylamino)phenyl]imidazo[1,2-a]pyridine]: in the data set with amyloid, the “Clearance from normal tissues” value is “rapid clearance from normal tissues”; the “Transfer to brain and accumulation at amyloid” value is “transferring to brain and accumulating at amyloid after administration”.

With `CNc1ccc(/C=C/c2ccc(O)cc2)cc1` [SB-13, (E)-4-methylamino-4′-hydroxystilbene], in data set [6], the “Clearance from normal tissues” value is “it cannot be said that the clearance is sufficiently fast”.

With `CN(C)c1ccc(-c2nc3ccc(I)cc3s2)cc1` [TZDM, 6-iodo-2-[4′-(N,N-dimethylamino)phenyl]benzothiazole], in data set [5], the “Clearance from normal tissues” value is on record as “insufficient in clearance from normal tissues” and the Transfer into brain entry is reported as “transferred into brain 2 minutes after administration”.

Regarding `CN(C)c1ccc(-c2cn3cc([123I])ccc3n2)cc1` [[^123I]-IMPY, reference compound], in data set [1], the “Radioactive accumulation per unit weight of brain, after 2 min.” value was 1.19 % ID/g; the “Radioactive accumulation per unit weight of brain, after 5 min.” value stood at 0.97 % ID/g; the “Radioactive accumulation per unit weight of brain, after 30 min.” value is given as 0.23 % ID/g; the “Radioactive accumulation per unit weight of brain, after 60 min.” value came to 0.09 % ID/g. The logPoctanol value in data set [4] came to 1.9.

For `COc1ccc2nc(-c3ccc([125I])cc3)cn2c1` [[^125I]-2-(4′-iodophenyl)-6-methoxyimidazo[1,2-a]pyridine], in data set [7], the Binding to amyloid result is “capable of binding to amyloid”. Also, the “Radioactive count (A−B) specifically binding to amyloid versus amyloid concentration” value in data set [7] (amyloid 25, 62.5, 250, 625 and 1000 nmol/L, 22° C., 3 hours) is “showed a tendency to increase with increment of the concentration of amyloid”.

On to `CN(C)c1ccc(/C=C/c2ccc(I)cc2)cc1` [m-I-SB, (E)-4-dimethylamino-4′-iodostilbene], for which, in data set [5], the “Clearance from normal tissues” value was “insufficient in clearance from normal tissues” and the Transfer into brain entry is recorded as “transferred into brain 2 minutes after administration”.

The record behind these values is US20090252680A1, “NOVEL COMPOUND WITH AFFINITY FOR AMYLOID” (NIHON- MEDI-PHYSICS CO., LTD, priority 2006, published 2009).
